Measurements: patent US20220281848A1, “PYRAZOLE-SUBSTITUTED PYRROLIDINONES AS HERBICIDES” (FMC Corporation, priority 2019, published 2022)

Tested on: plants
Test: Test D pre-emergence, other plants of Tables D1 and D3
Assay type: in vivo
Settings: for damage to plant (100=total damage to plant; 0=no damage to plant), SORVU: preemergent, 20 DAA; for damage to plant, ALOMY / damage to plant, AVEFA / damage to plant, BEAVA / damage to plant, BROTE / damage to plant, BRSNN / damage to plant, CHEAL / damage to plant, GALAP / damage to plant, HORVW / damage to plant, KCHSC / damage to plant, LOLPE / damage to plant, POAAN / damage to plant, POLCO / damage to plant, SINAR / damage to plant, STEME / damage to plant, VERPE: pre-emergence, 100=total damage, 0=no damage
Method in brief: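 Damage was rated visually from 0 (none) to 100 (total), at 20 DAA for pre-emergence and 15 d for post-emergence. Plants grew from safener-treated seed in a glasshouse at 24/18° C. or 20/16° C. day/night, 65% humidity, watered twice daily.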

CN1C[C@H](c2nn(C)c3c(F)cccc23)[C@@H](C(=O)Nc2cccc(F)c2F)C1=O [Compound 2]
damage to plant (100=total damage to plant; 0=no damage to plant), SORVU (rate 130): 0 | damage to plant (100=total damage to plant; 0=no damage to plant), SORVU (rate 250): 0 | damage to plant (100=total damage to plant; 0=no damage to plant), SORVU (rate 500): 0 | damage to plant, ALOMY (rate 15, 20 DAA): 0 | damage to plant, AVEFA (rate 15, 20 DAA): 0 | damage to plant, BEAVA (rate 15, 20 DAA): 0 | damage to plant, BROTE (rate 15, 20 DAA): 0 | damage to plant, BRSNN (rate 15, 20 DAA): 0 | damage to plant, CHEAL (rate 15, 20 DAA): 0 | damage to plant, GALAP (rate 15, 20 DAA): 0 | damage to plant, HORVW (rate 15, 20 DAA): 0 | damage to plant, KCHSC (rate 15, 20 DAA): 0 | damage to plant, LOLPE (rate 15, 20 DAA): 0 | damage to plant, POAAN (rate 15, 20 DAA): 0 | damage to plant, POLCO (rate 15, 20 DAA): 0 | damage to plant, SINAR (rate 15, 20 DAA): 0 | damage to plant, STEME (rate 15, 20 DAA): 0 | damage to plant, VERPE (rate 15, 20 DAA): 0 | damage to plant, ALOMY (rate 30, 20 DAA): 0 | damage to plant, AVEFA (rate 30, 20 DAA): 0 | damage to plant, BEAVA (rate 30, 20 DAA): 0 | damage to plant, BROTE (rate 30, 20 DAA): 0 | damage to plant, BRSNN (rate 30, 20 DAA): 0 | damage to plant, CHEAL (rate 30, 20 DAA): 0 | damage to plant, GALAP (rate 30, 20 DAA): 0 | damage to plant, HORVW (rate 30, 20 DAA): 0 | damage to plant, KCHSC (rate 30, 20 DAA): 0 | damage to plant, LOLPE (rate 30, 20 DAA): 0 | damage to plant, POAAN (rate 30, 20 DAA): 0 | damage to plant, POLCO (rate 30, 20 DAA): 0 | damage to plant, SINAR (rate 30, 20 DAA): 0 | damage to plant, STEME (rate 30, 20 DAA): 0 | damage to plant, VERPE (rate 30, 20 DAA): 0 | damage to plant, ALOMY (rate 60, 20 DAA): 0 | damage to plant, AVEFA (rate 60, 20 DAA): 0 | damage to plant, BEAVA (rate 60, 20 DAA): 0 | damage to plant, BROTE (rate 60, 20 DAA): 0 | damage to plant, BRSNN (rate 60, 20 DAA): 0 | damage to plant, CHEAL (rate 60, 20 DAA): 0 | damage to plant, GALAP (rate 60, 20 DAA): 0 | damage to plant, HORVW (rate 60, 20 DAA): 0 | damage to plant, KCHSC (rate 60, 20 DAA): 0 | damage to plant, LOLPE (rate 60, 20 DAA): 10 | damage to plant, POAAN (rate 60, 20 DAA): 0 | damage to plant, POLCO (rate 60, 20 DAA): 0 | damage to plant, SINAR (rate 60, 20 DAA): 0 | damage to plant, STEME (rate 60, 20 DAA): 0 | damage to plant, VERPE (rate 60, 20 DAA): 0 | damage to plant, ALOMY (rate 130, 20 DAA): 0 | damage to plant, AVEFA (rate 130, 20 DAA): 0 | damage to plant, BEAVA (rate 130, 20 DAA): 0 | damage to plant, BROTE (rate 130, 20 DAA): 10 | damage to plant, BRSNN (rate 130, 20 DAA): 0 | damage to plant, CHEAL (rate 130, 20 DAA): 0 | damage to plant, GALAP (rate 130, 20 DAA): 0 | damage to plant, HORVW (rate 130, 20 DAA): 0 | damage to plant, KCHSC (rate 130, 20 DAA): 0 | damage to plant, LOLPE (rate 130, 20 DAA): 30 | damage to plant, POAAN (rate 130, 20 DAA): 10 | damage to plant, POLCO (rate 130, 20 DAA): 20 | damage to plant, SINAR (rate 130, 20 DAA): 0 | damage to plant, STEME (rate 130, 20 DAA): 0 | damage to plant, VERPE (rate 130, 20 DAA): 0 | damage to plant, ALOMY (rate 250, 20 DAA): 20 | damage to plant, AVEFA (rate 250, 20 DAA): 0 | damage to plant, BEAVA (rate 250, 20 DAA): 0 | damage to plant, BROTE (rate 250, 20 DAA): 20 | damage to plant, BRSNN (rate 250, 20 DAA): 10 | damage to plant, CHEAL (rate 250, 20 DAA): 0 | damage to plant, GALAP (rate 250, 20 DAA): 0 | damage to plant, HORVW (rate 250, 20 DAA): 10 | damage to plant, KCHSC (rate 250, 20 DAA): 0 | damage to plant, LOLPE (rate 250, 20 DAA): 60 | damage to plant, POAAN (rate 250, 20 DAA): 50 | damage to plant, POLCO (rate 250, 20 DAA): 20 | damage to plant, SINAR (rate 250, 20 DAA): 0 | damage to plant, STEME (rate 250, 20 DAA): 0 | damage to plant, VERPE (rate 250, 20 DAA): 0 | damage to plant, ALOMY (rate 500, 20 DAA): 40 | damage to plant, AVEFA (rate 500, 20 DAA): 10 | damage to plant, BEAVA (rate 500, 20 DAA): 10 | damage to plant, BROTE (rate 500, 20 DAA): 20 | damage to plant, BRSNN (rate 500, 20 DAA): 20 | damage to plant, CHEAL (rate 500, 20 DAA): 0 | damage to plant, GALAP (rate 500, 20 DAA): 0 | damage to plant, HORVW (rate 500, 20 DAA): 20 | damage to plant, KCHSC (rate 500, 20 DAA): 0 | damage to plant, LOLPE (rate 500, 20 DAA): 70 | damage to plant, POAAN (rate 500, 20 DAA): 90 | damage to plant, POLCO (rate 500, 20 DAA): 60 | damage to plant, SINAR (rate 500, 20 DAA): 0 | damage to plant, STEME (rate 500, 20 DAA): 60 | damage to plant, VERPE (rate 500, 20 DAA): 0
